Assay results published in ChEMBL document CHEMBL1131310 (J Med Chem, 1998).
Several values for one entry are separate records, joined by “and”; a condition that tells them apart may be missing. Equal entries are not always repeated.

How the values were obtained:
Gallus gallus = species on record: Gallus gallus; assay: The compound was evaluated for neurite outgrowth from chick dorsal root ganglia; format: functional
[1] = biological target: Peptidyl-prolyl cis-trans isomerase FKBP1A (Homo sapiens, UniProt P62942); assay: The compound was tested for binding affinity against rotamase
Sequence of Peptidyl-prolyl cis-trans isomerase FKBP1A (P62942 whole entry): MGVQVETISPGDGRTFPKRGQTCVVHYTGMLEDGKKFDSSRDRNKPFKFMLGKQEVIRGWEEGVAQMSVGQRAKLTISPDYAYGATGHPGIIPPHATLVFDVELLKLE

Compound | ED50 (Gallus gallus) [nM] | Ki [1]
CCC(C)(C)C(=O)C(=O)N1CCCC[C@H]1C(=O)O[C@H](CCc1ccccc1)c1ccccc1 | 0.3 | –
CCC(C)(C)C(=O)C(=O)N1CCCC[C@H]1C(=O)OCCCc1cccnc1 | 8.5 | 165 nM
CCC(C)(C)C(=O)C(=O)N1CCCC[C@H]1C(=O)OCCCc1ccccc1 | 300 | 250 nM and 110 nM
CCC(C)(C)C(=O)C(=O)N1CCC[C@H]1C(=O)OCCCc1ccccc1 | 53 | –
CCC(C)(C)C(=O)C(=O)N1CCC[C@H]1C(=O)OCCCc1cccnc1 [GPI-1046] | 0.05 | –
